Test system: a variety of crops and weed species
Experiment: Pre- and post-emergence herbicide tests, overall assessment of TABLES III-VI
Type: in vivo
Conditions: from data of TABLES III-VI
Method: All crop and weed species were planted individually in 3" plastic pots containing potting soil. Four seeds each of corn, cotton, and snapbeans were seeded to a depth equal to the diameter of the seed. All other species were surface seeded and sprinkled with screened soil in an amount sufficient to cover the seed. Immediately after planting, all pots were watered by sub-irrigation in greenhouse trays. Pots for the pre-emergence phase were seeded one day before treatment.
Planting dates for the post-emergence phase were varied so that all seedlings would reach the desired stage of development simultaneously. The proper stage of seedling development for treatment in the post-emergence phase is as follows:
Compounds were tested at rates of application equivalent to 8 lbs. of actual compound per acre in a spray volume of 38 gallons per acre. Spray hood constants required to deliver the above volume are as follows:
Two weeks after treatment, pre- and post-emergence injury or control was visually rated, and the results were as shown in the following tables. Pre-emergence data are provided in TABLE III and post-emergence data are provided in TABLE IV, for compounds having the formula illustrated in TABLE I. Correspondingly, pre-emergence and post-emergence data, respectively, are set forth in TABLES V AND VI, for compounds having the formula illustrated in TABLE II.
Typical of such compounds are: 1, 2, 5, 26, 36, and 37.

| Compound | herbicidal effectiveness and selectivity (in words) |
| --- | --- |
| CNC(=O)Nc1nnc(C(F)(F)F)s1 [Example 1, 1-Methyl-3-[5-Trifluoromethyl-2-(1,3,4-Thiadiazolyl)]Urea] | extremely effective |
| CN(C)C(=O)Nc1nnc(C(F)(F)F)s1 [Example 2, 1,1-Dimethyl-3-[5-Trifluoromethyl-2-(1,3,4-Thiadiazolyl)]Urea] | extremely effective |
| CSc1nnc(N(C)C(=O)N(C)C)s1 [Example 5, 1,1,3-trimethyl-3-[5-methylthio-2-(1,3,4-thiadiazolyl)]urea] | extremely effective |
| CCNC(=O)Nc1nnc(C(F)(F)F)s1 [Example 9] | more selective |
| C=CCNC(=O)Nc1nnc(C(F)(F)F)s1 [Example 12] | control post-emergence growth, while have little effect in regard to pre-emergence |
| O=C(Nc1ccc(Cl)cc1)Nc1nnc(C(F)(F)F)s1 [Example 15] | more selective |
| O=C(Nc1ccc(Cl)c(Cl)c1)Nc1nnc(C(F)(F)F)s1 [Example 16] | more selective |
| Cc1nnc(NC(=O)N(C)C)s1 [Example 19] | converse of this relationship |
| CCc1nnc(NC(=O)N(C)C)s1 [Example 20] | more selective |

From US4599424A, “5-substituted thiadiazole ureas and their use as herbicides” (priority 1979, dated 1986)
